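In this assay, cells in 96-well plates receive the compound at five concentrations for 48 hours. Endpoints are linearly interpolated between the surrounding concentrations. The concentration for 50% growth inhibition is given as GI50.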 The source made the active and inactive calls. Rule as the data show it: active = GI50 up to about 1.1 µM and inactive = higher.
Columns and labels:
Assay in all cases: NCI anticancer screen, dose series, 48 h
[1] = system: NCI-H23
[2] = system: BT-549
[3] = system: ACHN
[4] = system: RPMI-8226
[5] = system: OVCAR-5
[6] = system: PC-3
[7] = system: A549
[8] = system: LOX IMVI
[9] = system: SNB-19
[10] = system: SNB-75
[11] = system: 786-0
[12] = system: NCI-H226
[13] = system: UO-31
[14] = system: TK-10
[15] = system: NCI/ADR-RES
[16] = system: OVCAR-4
[17] = system: OVCAR-3
[18] = system: SR
[19] = system: HOP-62

Structure (SMILES) | GI50 [1] | GI50 [2] | GI50 [3] | GI50 [4] | GI50 [5] | GI50 [6] | GI50 [7] | GI50 [8] | GI50 [9] | GI50 [10] | GI50 [11] | GI50 [12] | GI50 [13] | GI50 [14] | GI50 [15] | GI50 [16] | GI50 [17] | GI50 [18] | GI50 [19]
CCCCCCOc1ccc(C(=O)N(C)O)cc1 | 11.9 µM (inactive) | 33.7 µM (inactive) | 6.01 µM (inactive) | 7.55 µM (inactive) | 67.3 µM (inactive) | 12.1 µM (inactive) | 12.1 µM (inactive) | 7.52 µM (inactive) | 24.2 µM (inactive) | 27.3 µM (inactive) | 12.4 µM (inactive) | 13.5 µM (inactive) | 9.48 µM (inactive) | 46.3 µM (inactive) | 10.1 µM (inactive) | 31.4 µM (inactive) | 9.68 µM (inactive) | 6.35 µM (inactive) | 11 µM (inactive)
CCc1[nH]c(=O)nc(N)c1-c1ccc(N2CCCCC2)c([N+](=O)[O-])c1 | > 100 µM (inactive) | > 100 µM (inactive) | > 100 µM (inactive) | > 100 µM (inactive) | > 100 µM (inactive) | > 100 µM (inactive) | > 100 µM (inactive) | > 100 µM (inactive) | > 100 µM (inactive) | > 100 µM (inactive) | > 100 µM (inactive) | > 100 µM (inactive) | > 100 µM (inactive) | > 100 µM (inactive) | > 100 µM (inactive) | > 100 µM (inactive) | > 100 µM (inactive) | > 100 µM (inactive) | > 100 µM (inactive)
C/C=C/c1c(O)c(=O)c2c(OC)cc(OC)c3c4c(OC)cc(OC)c5c(=O)c(O)c(/C=C/C)c(c1c23)c54 | 7.59 µM (inactive) | 3.1 µM (inactive) | 2.86 µM (inactive) | 6.92 µM (inactive) | 20.5 µM (inactive) | 6.37 µM (inactive) | 5.97 µM (inactive) | 8.55 µM (inactive) | 1.95 µM (inactive) | 12.2 µM (inactive) | 14.9 µM (inactive) | < 0.01 µM (active) | 1.64 µM (inactive) | > 10 µM (inactive) | 14.5 µM (inactive) | 13 µM (inactive) | 3.99 µM (inactive) | > 100 µM (inactive) | 16.3 µM (inactive)
O=C1C2CCN(CC2)C1(CO)CO | 25.2 µM (inactive) | 19.8 µM (inactive) | 17.9 µM (inactive) | 17.8 µM (inactive) | 26 µM (inactive) | > 79.1 µM (inactive) | 78.3 µM (inactive) | 16 µM (inactive) | > 100 µM (inactive) | 57.7 µM (inactive) | 28.2 µM (inactive) | 28.1 µM (inactive) | 16.1 µM (inactive) | 17.3 µM (inactive) | 24.5 µM (inactive) | 19.4 µM (inactive) | 15.9 µM (inactive) | 20 µM (inactive) | > 88.5 µM (inactive)
O=C(OCc1ccccc1)N(CCCCN(CCCNC(=O)C(F)(F)F)C(=O)OCc1ccccc1)CCCNC(=O)C(F)(F)F | > 100 µM (inactive) | > 100 µM (inactive) | 23.9 µM (inactive) | > 100 µM (inactive) | > 100 µM (inactive) | 36.9 µM (inactive) | > 66.8 µM (inactive) | > 100 µM (inactive) | 4.2 µM (inactive) | > 100 µM (inactive) | > 100 µM (inactive) | > 100 µM (inactive) | 3.56 µM (inactive) | > 100 µM (inactive) | 22.5 µM (inactive) | > 100 µM (inactive) | > 100 µM (inactive) | > 100 µM (inactive) | > 100 µM (inactive)
C=C1C[C@]23CC[C@@H]4C(CO)(CO)CC(=O)C[C@]4(C)[C@@H]2CC[C@H]1C3 | > 100 µM (inactive) | > 100 µM (inactive) | > 100 µM (inactive) | > 100 µM (inactive) | > 100 µM (inactive) | 40.5 µM (inactive) | > 100 µM (inactive) | > 100 µM (inactive) | 21.5 µM (inactive) | > 100 µM (inactive) | > 100 µM (inactive) | 93.8 µM (inactive) | 78.5 µM (inactive) | > 100 µM (inactive) | > 100 µM (inactive) | > 100 µM (inactive) | > 100 µM (inactive) | > 100 µM (inactive) | > 100 µM (inactive)
CCOC(=O)Cc1[nH]c(C(=O)c2ccccc2)cc1C(=O)c1ccccc1 | 17.4 µM (inactive) | 20.6 µM (inactive) | > 10 µM (inactive) | > 10 µM (inactive) | > 10 µM (inactive) | > 10 µM (inactive) | 25.4 µM (inactive) | 22.2 µM (inactive) | > 100 µM (inactive) | 59.8 µM (inactive) | > 10 µM (inactive) | 23.3 µM (inactive) | > 10 µM (inactive) | 36 µM (inactive) | > 100 µM (inactive) | 18.3 µM (inactive) | 46.3 µM (inactive) | 38.4 µM (inactive) | 23.8 µM (inactive)
